Experimental data published in BindingDB's records for doi:10.1016/0960-894X(95)00199-4 (1995).

Columns and labels:
[1] = Compound was evaluated for the inhibition of platelet aggregation, assessed turbidimetrically in citreated human platelet rich plasma (PRP)
Thromboxane A2 receptor = molecular target: T1, Thromboxane A2 receptor (Homo sapiens, UniProt P21731); test: Compound was evaluated for the inhibition of platelet aggregation, assessed turbidimetrically in citreated human platelet rich plasma (PRP)
T1 sequence (P21731 whole entry): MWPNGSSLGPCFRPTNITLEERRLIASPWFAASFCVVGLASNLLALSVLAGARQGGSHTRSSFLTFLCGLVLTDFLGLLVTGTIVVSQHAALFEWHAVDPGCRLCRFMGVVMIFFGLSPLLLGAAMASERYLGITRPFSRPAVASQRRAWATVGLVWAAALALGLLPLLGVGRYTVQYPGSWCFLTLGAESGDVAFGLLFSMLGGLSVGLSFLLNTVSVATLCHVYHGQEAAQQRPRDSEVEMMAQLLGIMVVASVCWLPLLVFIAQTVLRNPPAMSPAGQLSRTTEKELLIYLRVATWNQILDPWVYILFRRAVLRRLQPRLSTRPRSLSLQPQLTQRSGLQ

Cc1ccc(S(=O)(=O)N[C@H]2CCC=C2C/C=C\CCC(=O)O)cc1
IC50 [1]: 1.8 µM

O=C(O)CCCCCC[C@@H]1[C@@H](CNS(=O)(=O)c2ccc(F)cc2)CC[C@H]1F
IC50 [1]: 6 µM

O=C(O)CCC/C=C\C[C@H]1[C@H](F)CC[C@@H]1NS(=O)(=O)c1ccc2ccccc2c1
IC50 [1]: 0.2 µM

O=C(O)CC/C=C\C[C@H]1[C@H](F)CC[C@@H]1NS(=O)(=O)c1ccc(Cl)cc1
IC50 [1]: 0.21 µM

O=C(O)CCC/C=C\CC1=CCC[C@@H]1NS(=O)(=O)c1cccc2cccnc12
IC50 [1]: 2 µM

O=C(O)CCC/C=C\C[C@H]1[C@H](F)CC[C@@H]1NS(=O)(=O)C1=C2N=CC=CC2CC=C1 (stereo partly drawn)
IC50 (Thromboxane A2 receptor): 2 µM

O=C(O)CC/C=C\CC1=CCC[C@@H]1NS(=O)(=O)c1ccc(F)cc1F
IC50 [1]: 20 µM

O=C(O)CC/C=C\CC1=CCC[C@@H]1NS(=O)(=O)c1ccc(F)cc1
IC50 [1]: 1.3 µM

O=C(O)CCC/C=C\CC1=CCC[C@@H]1CNS(=O)(=O)c1ccc(F)cc1
IC50 [1]: 1.7 µM

O=C(O)COCCCCC1=CCC[C@@H]1CNS(=O)(=O)c1ccc(F)cc1
IC50 [1]: 0.2 µM

O=C(O)COCCCCC1=CCC[C@@H]1NS(=O)(=O)c1ccc(Cl)c(Cl)c1
IC50 [1]: 1.9 µM

O=C(O)CCC/C=C\CC1=CCC[C@@H]1NS(=O)(=O)c1ccccc1
IC50 [1]: 2.3 µM

O=C(O)CC/C=C\C[C@H]1[C@H](F)CC[C@@H]1NS(=O)(=O)c1ccc(F)cc1
IC50 [1]: 0.75 µM

Cc1ccc(S(=O)(=O)N[C@H]2CCC=C2CCCCOCC(=O)O)cc1
IC50 [1]: 1.9 µM

O=C(O)CC/C=C\C[C@@H]1[C@@H](CNS(=O)(=O)c2ccc(Cl)cc2)CC[C@H]1F
IC50 [1]: 1.8 µM

O=C(O)COCCCCC1=CCC[C@@H]1NS(=O)(=O)c1ccccc1
IC50 [1]: 2 µM

Cc1ccc(S(=O)(=O)N[C@H]2CC[C@@H](F)[C@@H]2CCCCOCC(=O)O)cc1
IC50 [1]: 1.8 µM

O=C(O)CC/C=C\CC1=CCC[C@@H]1NS(=O)(=O)c1ccc(Cl)cc1
IC50 [1]: 1.9 µM

O=C(O)COCCCC[C@H]1[C@H](F)CC[C@@H]1NS(=O)(=O)c1ccccc1[N+](=O)[O-]
IC50 [1]: 5.5 µM

O=C(O)CCC/C=C\C[C@H]1[C@H](F)CC[C@@H]1NS(=O)(=O)c1ccc(F)cc1F
IC50 [1]: 0.2 µM

O=C(O)CCC/C=C\C[C@@H]1[C@@H](CNS(=O)(=O)c2ccc(F)cc2)CC[C@H]1F
IC50 [1]: 2 µM

Cc1ccc(S(=O)(=O)NC[C@H]2CC[C@@H](F)[C@@H]2C/C=C\CCC(=O)O)cc1
IC50 [1]: 1.9 µM

Cc1ccc(S(=O)(=O)N[C@H]2CCC=C2C/C=C\CCCC(=O)O)cc1
IC50 [1]: 0.25 µM

O=C(O)CCC/C=C\C[C@H]1[C@H](F)CC[C@@H]1NS(=O)(=O)c1ccccc1[N+](=O)[O-]
IC50 [1]: 1.8 µM

O=C(O)CC/C=C\C[C@H]1[C@H](F)CC[C@@H]1NS(=O)(=O)c1ccccc1[N+](=O)[O-]
IC50 [1]: 0.56 µM

Cc1ccc(S(=O)(=O)N[C@H]2CC[C@@H](F)[C@@H]2C/C=C\CCC(=O)O)cc1
IC50 [1]: 1.9 µM

O=C(O)CC/C=C\CC1=CCC[C@@H]1NS(=O)(=O)c1ccccc1[N+](=O)[O-]
IC50 [1]: 0.6 µM

O=C(O)COCCCC[C@H]1[C@H](F)CC[C@@H]1NS(=O)(=O)c1ccccc1
IC50 [1]: 1.7 µM

O=C(O)CCC/C=C\C[C@H]1[C@H](F)CC[C@@H]1NS(=O)(=O)c1ccc(Cl)cc1
IC50 [1]: 0.07 µM

O=C(O)COCCCC[C@@H]1[C@@H](CNS(=O)(=O)c2ccc(F)cc2)CC[C@H]1F
IC50 [1]: 0.65 µM

O=C(O)CC/C=C\CC1=CCC[C@@H]1NS(=O)(=O)c1ccccc1
IC50 [1]: 2.2 µM

O=C(O)CCCCCC[C@H]1[C@H](F)CC[C@@H]1NS(=O)(=O)c1ccc(F)cc1
IC50 [1]: 2.4 µM

O=C(O)CC/C=C\C[C@@H]1[C@@H](CNS(=O)(=O)c2ccc(F)cc2)CC[C@@H]1F
IC50 [1]: 0.65 µM

O=C(O)CCC/C=C\C[C@H]1[C@H](F)CC[C@@H]1NS(=O)(=O)c1ccc(Cl)c(Cl)c1
IC50 [1]: 0.63 µM

O=C(O)CCC/C=C\C[C@H]1[C@H](F)CC[C@@H]1NS(=O)(=O)c1ccc(F)cc1
IC50 (Thromboxane A2 receptor): 0.54 µM

O=C(O)COCCCC[C@H]1[C@H](F)CC[C@@H]1NS(=O)(=O)c1ccc(F)cc1F
IC50 [1]: 1.8 µM

O=C(O)CC/C=C\C[C@H]1[C@H](F)CC[C@@H]1NS(=O)(=O)c1ccc(Cl)c(Cl)c1
IC50 [1]: 1.7 µM

O=C(O)CC/C=C\C[C@@H]1[C@@H](CNS(=O)(=O)c2ccc(F)cc2)CC[C@H]1F
IC50 (Thromboxane A2 receptor): 1.9 µM

O=C(O)CCCCC[C@@H]1[C@@H](CNS(=O)(=O)c2ccc(F)cc2)CC[C@H]1F
IC50 [1]: 4.7 µM

O=C(O)COCCCC[C@H]1[C@H](F)CC[C@@H]1NS(=O)(=O)c1ccc(F)cc1
IC50 [1]: 1.8 µM

O=C(O)CCC/C=C\CC1=CCC[C@@H]1NS(=O)(=O)c1ccc2ccccc2c1
IC50 [1]: 1.9 µM

O=C(O)COCCCCC1=CCC[C@@H]1NS(=O)(=O)c1ccccc1[N+](=O)[O-]
IC50 [1]: 1.9 µM

O=C(O)CC/C=C\CC1=CCC[C@@H]1NS(=O)(=O)c1ccc(Cl)c(Cl)c1
IC50 [1]: 1.9 µM

O=C(O)CC/C=C/C[C@H]1[C@H](F)CC[C@@H]1NS(=O)(=O)c1ccc(F)cc1F
IC50 [1]: 1.6 µM

O=C(O)COCCCCC1=CCC[C@@H]1NS(=O)(=O)c1ccc(F)cc1F
IC50 [1]: 1.8 µM

Cc1ccc(S(=O)(=O)N[C@H]2CC[C@@H](F)[C@@H]2C/C=C\CCCC(=O)O)cc1
IC50 [1]: 0.26 µM

O=C(O)CCCCCCC1=CCC[C@@H]1NS(=O)(=O)c1ccc(F)cc1
IC50 [1]: 0.62 µM

O=C(O)CC/C=C\C[C@H]1[C@H](F)CC[C@@H]1NS(=O)(=O)c1ccccc1
IC50 [1]: 2 µM

O=C(O)CCC/C=C\C[C@H]1[C@H](F)CC[C@@H]1NS(=O)(=O)c1ccccc1
IC50 [1]: 1.1 µM

O=C(O)CCC/C=C\CC1=CCC[C@@H]1NS(=O)(=O)c1ccccc1[N+](=O)[O-]
IC50 [1]: 0.68 µM

O=C(O)CCC/C=C\CC1=CCC[C@@H]1NS(=O)(=O)c1ccc(F)cc1
IC50 [1]: 4.4 µM

O=C(O)CC/C=C\CC1=CCC[C@@H]1CNS(=O)(=O)c1ccc(F)cc1
IC50 [1]: 0.6 µM

O=C(O)COCCCCC1=CCC[C@@H]1NS(=O)(=O)c1ccc(F)cc1
IC50 [1]: 2 µM
